Measurements as given in ChEMBL document CHEMBL1127778, “Structure-activity relationship of novel distamycin a derivatives : synthesis and antitumor activity” (Bioorg Med Chem Lett, 1994).
Converted amounts (≈) assume the structure as drawn.

How the values were obtained:
L1210 [1] = experiment: In vitro inhibitory activity against FCE 24517 resistant L1210 leukemia cell lines ( ratio between IC50 values on resistant cells and sensitive cells); format: functional, Mus musculus
L1210 [2] = experiment: In vitro inhibitory activity against Doxorubicin resistant L1210 leukemia cell lines ( ratio between IC50 values on resistant cells and sensitive cells); format: functional, Mus musculus
L1210 [3] = experiment: The activity in vitro on L1210 murine leukemia cells, activity expressed as IC50; format: functional, cell-based, Mus musculus
Mus musculus = experiment: Median survival time of treated mice / Median survival time of controls x100 was measured in vivo on L1210 murine leukemia cells; format: functional
L1210 [4] = experiment: Optimal dose was measured in vivo on L1210 murine leukemia cells in CD2F1 mice(ip); format: functional, Mus musculus
[5] = Mus musculus, L1210, read-out: IC50

Structure (SMILES) | R.I (L1210 [1]) | R.I (L1210 [2]) | IC50 (L1210 [3]; [5]) [µg/mL] | IC50 (L1210 [3]; l1210) [µg/mL] | T/C (Mus musculus) [%] | OD (L1210 [4]) [mg/kg]
C=C(Br)C(=O)O | 0.5 | 1.1 | 18.8 (≈ 125 µM) | – | – | –
O=C(O)C1CO1 (stereo not drawn) | 0.5 | 1 | – | 131.397 (≈ 1490 µM) | – | –
Cl.Cn1cc(NC(=O)c2cc(NC(=O)c3cc(NC(=O)c4cc(NC=O)cn4C)cn3C)cn2C)cc1C(=O)NCCC(=N)N | 169.9 | 175.4 | 0.285 | – | – | –
Cl.Cn1cc(NC(=O)c2cc(NC(=O)c3cc(NC(=O)c4cc(NC(=O)C5CO5)cn4C)cn3C)cn2C)cc1C(=O)NCCC(=N)N (stereo not drawn) | 24.1 | 1.7 | 0.0389 | – | 188 | 3.125
C=C(Cl)C(=O)Nc1cc(C(=O)Nc2cc(C(=O)Nc3cc(C(=O)NCCC(=N)N)n(C)c3)n(C)c2)n(C)c1.Cl | 24.8 | 40.3 | 0.056 | – | 184 | 10
C=C(Br)C(=O)Nc1cc(C(=O)Nc2cc(C(=O)Nc3cc(C(=O)NCCC(=N)N)n(C)c3)n(C)c2)n(C)c1.Cl | 11.4 | 8.8 | 0.0496 | – | 175 | 12.5
Cl.Cn1cc(NC(=O)c2cc(NC(=O)c3cc(NC(=O)C4CO4)cn3C)cn2C)cc1C(=O)NCCC(=N)N (stereo not drawn) | 44.4 | 7.1 | 0.229 | – | 188 | 50
Cl.Cn1cc(NC(=O)c2cc(NC(=O)c3cc(NC(=O)c4cc(NC(=O)c5ccc(N(CCCl)CCCl)cc5)cn4C)cn3C)cn2C)cc1C(=O)NCCC(=N)N | 65.4 | – | 0.0163 | – | 138 | 0.39
C=C(Br)C(=O)Nc1cc(C(=O)Nc2cc(C(=O)Nc3cc(C(=O)Nc4cc(C(=O)NCCC(=N)N)n(C)c4)n(C)c3)n(C)c2)n(C)c1.Cl | 27 | 3.8 | 0.0047 | – | 206 | 3.125
C=C(Cl)C(=O)Nc1cc(C(=O)Nc2cc(C(=O)Nc3cc(C(=O)Nc4cc(C(=O)NCCC(=N)N)n(C)c4)n(C)c3)n(C)c2)n(C)c1.Cl | 69.6 | 59.9 | 0.0027 | – | 171 | 3.125
Cn1cc(NC(=O)c2cc(NC(=O)c3cc(NC=O)cn3C)cn2C)cc1C(=O)NCCC(=N)N [STALLIMYCIN] | 14.1 | 45.6 | 5.22 (≈ 10.8 µM) | – | 113 | 200
Cl.Cn1cc(NC(=O)c2cc(NC(=O)c3cc(NC(=O)c4ccc(N(CCCl)CCCl)cc4)cn3C)cn2C)cc1C(=O)NCCC(=N)N [TALLIMUSTINE CHLORIDE] | 21.7 | 28 | 0.0244 | – | 175 | 3.125
